What was measured:
[1] = molecular target: T1, recombinant human HDAC5 (Homo sapiens, UniProt Q9UQL6); test: HDAC isoform inhibition fluorogenic assay (BPS Bioscience kit); assay type: biochemical
T1 construct: purchased BPS Bioscience, Inc
Excerpt: (§1) We utilized the well-established fluorogenic assay to screen NT376 against recombinant human HDAC isoforms and against endogenous HDACs in HT-29 cells. The class IIa HDAC fluorogenic assay functions in a two-step process: first, the class IIa HDAC removes the trifluoroacetate (TFA) from TFA-lysine substrate to generate free lysine which is recognized by trypsin and releases a fluorescent fluorophore (intact substrate is not recognized by trypsin) that can be detected using microplate reader. The IC50 was determined using nonlinear fit curves (GraphPad Prism) (% HDAC activity inhibition vs. compound concentration). The IC50 measurements were performed in triplicates and experiments were repeated twice with known HDAC inhibitors NT160 and SAHA used as positive and negative controls respectively.
(§2) Preparation of NT376: A 1.0 mM stock solution of NT376 was prepared in 100% DMSO. 11-dilutions of NT376 were then prepared in HDAC assay buffer with the DMSO adjusted to 2.5% final concentration in the assay medium.
(§3) NT376 was screened against recombinant human HDACs isoforms using the commercially available HDACs enzyme assay kits (BPS Bioscience, Inc.). The experiments were performed according to the manufacturer protocol.

[2] = molecular target: T2, recombinant human HDAC11 (Homo sapiens, UniProt Q96DB2); test: as above; assay type: biochemical; conditions: class-IV
T2 construct: purchased BPS Bioscience, Inc
T2 sequence (Q96DB2 1-347): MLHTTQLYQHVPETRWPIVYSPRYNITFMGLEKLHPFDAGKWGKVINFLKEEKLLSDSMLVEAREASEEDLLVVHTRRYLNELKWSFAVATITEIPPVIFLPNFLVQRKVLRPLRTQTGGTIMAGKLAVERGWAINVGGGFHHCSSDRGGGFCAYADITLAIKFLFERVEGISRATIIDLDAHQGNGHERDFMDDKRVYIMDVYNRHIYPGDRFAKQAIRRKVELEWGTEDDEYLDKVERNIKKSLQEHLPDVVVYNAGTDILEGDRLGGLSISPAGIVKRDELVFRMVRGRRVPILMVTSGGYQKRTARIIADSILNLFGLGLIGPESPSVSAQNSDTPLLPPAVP
Excerpt: as §1, §2, §3

[3] = molecular target: T3, recombinant human HDAC4 (Homo sapiens, UniProt P56524); test: as above; assay type: biochemical
T3 construct: purchased BPS Bioscience, Inc
T3 sequence (P56524 whole entry): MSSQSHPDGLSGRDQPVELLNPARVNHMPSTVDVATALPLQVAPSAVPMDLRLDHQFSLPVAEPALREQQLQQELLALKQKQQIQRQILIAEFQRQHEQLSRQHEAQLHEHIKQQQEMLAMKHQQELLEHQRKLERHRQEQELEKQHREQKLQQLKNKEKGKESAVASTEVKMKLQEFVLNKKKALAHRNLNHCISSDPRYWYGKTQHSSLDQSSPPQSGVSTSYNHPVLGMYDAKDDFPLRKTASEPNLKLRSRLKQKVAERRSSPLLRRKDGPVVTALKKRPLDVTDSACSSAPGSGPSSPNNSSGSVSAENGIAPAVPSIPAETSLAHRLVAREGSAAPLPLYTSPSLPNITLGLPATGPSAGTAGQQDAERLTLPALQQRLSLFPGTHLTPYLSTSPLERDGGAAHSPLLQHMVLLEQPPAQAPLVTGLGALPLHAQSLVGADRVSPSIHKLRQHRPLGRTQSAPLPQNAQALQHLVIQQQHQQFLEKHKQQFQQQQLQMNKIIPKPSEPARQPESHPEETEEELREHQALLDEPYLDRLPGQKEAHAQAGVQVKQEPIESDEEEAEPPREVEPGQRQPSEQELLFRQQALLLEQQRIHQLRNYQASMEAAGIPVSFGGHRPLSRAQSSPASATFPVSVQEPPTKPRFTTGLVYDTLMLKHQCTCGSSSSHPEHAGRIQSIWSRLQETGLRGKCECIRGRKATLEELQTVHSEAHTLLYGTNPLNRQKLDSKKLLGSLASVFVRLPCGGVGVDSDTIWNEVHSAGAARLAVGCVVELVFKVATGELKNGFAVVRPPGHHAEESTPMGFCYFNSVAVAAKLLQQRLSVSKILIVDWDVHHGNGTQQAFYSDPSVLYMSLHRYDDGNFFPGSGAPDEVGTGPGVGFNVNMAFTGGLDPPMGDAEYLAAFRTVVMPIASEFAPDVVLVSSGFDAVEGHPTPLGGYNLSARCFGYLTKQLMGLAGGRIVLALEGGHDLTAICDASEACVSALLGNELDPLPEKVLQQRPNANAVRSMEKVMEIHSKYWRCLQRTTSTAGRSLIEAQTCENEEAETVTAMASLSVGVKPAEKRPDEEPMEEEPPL
Excerpt: as §1, §2, §3

[4] = molecular target: T4, recombinant human HDAC6 (Homo sapiens, UniProt Q9UBN7); test: as above; assay type: biochemical; conditions: class-IIb
T4 construct: purchased BPS Bioscience, Inc
T4 sequence (Q9UBN7 1-1215): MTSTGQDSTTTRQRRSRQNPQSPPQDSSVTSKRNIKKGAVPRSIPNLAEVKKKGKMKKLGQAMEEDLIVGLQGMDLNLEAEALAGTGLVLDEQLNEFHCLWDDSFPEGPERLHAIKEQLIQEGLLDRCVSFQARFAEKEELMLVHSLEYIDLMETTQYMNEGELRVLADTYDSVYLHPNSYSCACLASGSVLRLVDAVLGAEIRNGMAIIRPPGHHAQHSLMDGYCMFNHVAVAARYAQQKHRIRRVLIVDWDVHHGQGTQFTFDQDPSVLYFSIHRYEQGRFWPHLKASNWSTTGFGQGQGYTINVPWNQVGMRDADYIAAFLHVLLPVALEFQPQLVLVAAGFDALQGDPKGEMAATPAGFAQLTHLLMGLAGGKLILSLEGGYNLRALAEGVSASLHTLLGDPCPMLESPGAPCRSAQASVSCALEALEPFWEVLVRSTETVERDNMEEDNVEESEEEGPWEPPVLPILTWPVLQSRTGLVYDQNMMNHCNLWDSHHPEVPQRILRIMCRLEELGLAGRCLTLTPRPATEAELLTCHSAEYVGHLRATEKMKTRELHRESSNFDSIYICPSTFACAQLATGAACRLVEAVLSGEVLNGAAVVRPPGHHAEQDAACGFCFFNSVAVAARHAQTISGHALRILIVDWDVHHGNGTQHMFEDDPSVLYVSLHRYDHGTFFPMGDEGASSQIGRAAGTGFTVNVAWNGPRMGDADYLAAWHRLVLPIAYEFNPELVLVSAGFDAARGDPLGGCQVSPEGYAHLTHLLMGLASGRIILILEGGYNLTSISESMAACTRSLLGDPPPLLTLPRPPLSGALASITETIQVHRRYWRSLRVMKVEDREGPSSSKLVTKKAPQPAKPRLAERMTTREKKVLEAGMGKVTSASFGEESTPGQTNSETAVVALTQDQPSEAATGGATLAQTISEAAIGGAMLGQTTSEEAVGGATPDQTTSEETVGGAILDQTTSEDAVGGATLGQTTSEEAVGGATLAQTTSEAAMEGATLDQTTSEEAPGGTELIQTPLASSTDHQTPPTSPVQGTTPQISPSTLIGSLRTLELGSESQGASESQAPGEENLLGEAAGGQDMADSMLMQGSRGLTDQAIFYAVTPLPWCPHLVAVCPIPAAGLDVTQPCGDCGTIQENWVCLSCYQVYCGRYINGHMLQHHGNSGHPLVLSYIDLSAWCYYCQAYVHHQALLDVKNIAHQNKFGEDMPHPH
Excerpt: as §1, §2, §3

[5] = molecular target: T5, recombinant human HDAC1 (Homo sapiens, UniProt Q13547); test: as above; assay type: biochemical; conditions: class-I
T5 construct: purchased BPS Bioscience, Inc
T5 sequence (Q13547 whole entry): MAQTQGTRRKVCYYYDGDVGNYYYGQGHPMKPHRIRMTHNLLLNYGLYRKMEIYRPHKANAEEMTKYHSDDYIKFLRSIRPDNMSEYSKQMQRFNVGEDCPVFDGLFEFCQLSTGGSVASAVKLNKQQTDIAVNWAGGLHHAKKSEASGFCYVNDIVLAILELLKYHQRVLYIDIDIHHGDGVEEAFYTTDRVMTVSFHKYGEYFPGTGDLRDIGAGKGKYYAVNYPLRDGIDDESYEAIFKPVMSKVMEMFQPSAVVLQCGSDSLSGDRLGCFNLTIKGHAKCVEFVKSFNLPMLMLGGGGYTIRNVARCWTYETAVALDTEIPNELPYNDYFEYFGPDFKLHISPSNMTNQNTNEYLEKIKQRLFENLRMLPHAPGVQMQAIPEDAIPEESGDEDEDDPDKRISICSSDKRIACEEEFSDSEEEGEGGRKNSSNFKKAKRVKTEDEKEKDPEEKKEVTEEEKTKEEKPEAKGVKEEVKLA
Excerpt: as §1, §2, §3

[6] = test system: endogenous class-IIa HDACs in HT-29 cells; test: Whole-cell assay of endogenous class-IIa HDAC inhibition in HT-29 cells (Boc-Lys-TFA substrate); assay type: cell-based; conditions: Homo sapiens, class-IIa selective substrate Boc-Lys-TFA, ± SEM
Excerpt: (§4) The next step was to determine the specificity, selectivity and potency of NT376 to class-IIa HDACs against endogenous class-IIa HDACs in HT-29 cells using the class-distinguishing substrates similar to our previous work[23].
as §1, with “The IC50 measurements were performed in triplicates and experiments were repeated twice with known HDAC inhibitors NT160 and SAHA used as positive and negative controls respectively.” left out
(§5) The cell-based HDAC inhibitor assays were performed in HT-29 cells (ATCC). […] The cells were then washed with HDAC Assay Buffer (RPMI 1640 media without phenol red, Gibco, containing 0.1% FBS), re-collected by centrifugation, resuspended in HDAC Assay Buffer, and counted. […] Fluorescent counts were read with a microplate reader at an excitation wavelength of 360 nm and emitted light was detected at 460 nm.

[7] = test system: endogenous class-I/IIb HDACs in HT-29 cells; test: Whole-cell assay of endogenous class-I/IIb HDAC inhibition in HT-29 cells (Boc-Lys-Ac substrate); assay type: cell-based; conditions: Homo sapiens, class-I/IIb selective substrate Boc-Lys-Ac
Excerpt: as §4
as §1, with “The IC50 measurements were performed in triplicates and experiments were repeated twice with known HDAC inhibitors NT160 and SAHA used as positive and negative controls respectively.” left out
as §5

T1 sequence (Q9UQL6 whole entry, canonical isoform): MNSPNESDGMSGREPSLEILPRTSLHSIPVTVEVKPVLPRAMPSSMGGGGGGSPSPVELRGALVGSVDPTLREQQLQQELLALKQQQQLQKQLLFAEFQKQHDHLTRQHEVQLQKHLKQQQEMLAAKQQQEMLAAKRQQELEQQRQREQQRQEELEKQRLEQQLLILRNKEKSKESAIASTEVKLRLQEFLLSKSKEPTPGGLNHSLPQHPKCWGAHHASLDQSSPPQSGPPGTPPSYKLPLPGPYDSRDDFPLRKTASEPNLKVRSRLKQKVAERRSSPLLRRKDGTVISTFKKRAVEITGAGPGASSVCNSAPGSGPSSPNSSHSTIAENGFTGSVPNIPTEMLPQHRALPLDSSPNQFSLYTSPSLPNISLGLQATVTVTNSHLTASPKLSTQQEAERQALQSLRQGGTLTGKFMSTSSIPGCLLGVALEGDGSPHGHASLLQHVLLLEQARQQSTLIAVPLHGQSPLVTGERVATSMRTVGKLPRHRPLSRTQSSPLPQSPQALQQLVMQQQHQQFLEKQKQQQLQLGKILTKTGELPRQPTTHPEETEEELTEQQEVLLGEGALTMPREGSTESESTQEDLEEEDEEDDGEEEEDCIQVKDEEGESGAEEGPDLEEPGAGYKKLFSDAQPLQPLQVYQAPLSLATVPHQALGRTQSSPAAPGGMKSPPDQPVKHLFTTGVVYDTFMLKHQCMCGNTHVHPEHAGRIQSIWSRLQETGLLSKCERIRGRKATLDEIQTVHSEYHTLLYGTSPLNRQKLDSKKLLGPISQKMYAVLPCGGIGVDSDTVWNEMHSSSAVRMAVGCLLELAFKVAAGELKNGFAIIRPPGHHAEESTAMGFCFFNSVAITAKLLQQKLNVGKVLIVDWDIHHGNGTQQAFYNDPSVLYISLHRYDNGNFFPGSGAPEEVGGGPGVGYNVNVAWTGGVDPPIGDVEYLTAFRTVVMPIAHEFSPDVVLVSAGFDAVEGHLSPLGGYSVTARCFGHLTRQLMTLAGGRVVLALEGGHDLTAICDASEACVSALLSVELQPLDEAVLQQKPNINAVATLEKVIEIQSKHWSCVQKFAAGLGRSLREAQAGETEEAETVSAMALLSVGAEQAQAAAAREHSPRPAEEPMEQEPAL

## C[C@H](CN(C)Cc1ccccc1)NC(=O)c1ccc(-c2noc(C(F)(F)F)n2)cc1F [NT376, (R)-N-(1-(benzyl(methyl)amino)propan-2-yl)-2-fluoro-4-(5-(trifluoromethyl)-1,2,4-oxadiazol-3-yl)benzamide]
[1]
  IC50: 2.85 nM
[2]
  IC50: 4.85 µM
[3]
  IC50: 1.26 nM
[4]
  IC50: 5.03 µM
[5]
  IC50: 1480 nM
[6]
  IC50: 32 ± 7.6 nM
[7]
  IC50: > 4 µM

Source: paper PMC11219833, “Design and radiosynthesis of class-IIa HDAC inhibitor with high molar activity via repositioning the ^18F-radiolabel” (Scientific Reports, 2024)
